21 compounds from patent publication US11084814B2, “Pyrido[3, 4-d]pyrimidine derivative and pharmaceutically acceptable salt thereof” (Teijin Pharma Limited, priority 2016, dated 2021) can be followed below.

For one assay, the target named is T1, CDK4/cyclin D3 (Homo sapiens, UniProt P11802).
T1 construct: purchased Carna Biosciences, Inc. QS S Assist CDK4/Cyclin D3_FP Kit
The experiment in a line: Human CDK4/cyclin D3 inhibitory activity (QS S Assist CDK4/Cyclin D3_FP Kit, IMAP fluorescent polarization). The class given is biochemical. The conditions noted are these: read-out: CDK4 Activity symbol. The method, boiled down: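 Kinase reactions used kit CDK4/cyclin D3 at 12.5–25 ng/well with the kit ATP/substrate/metal mix in 20 mM HEPES (pH 7.4), 0.01% Tween20 and 2 mM DTT, run 45 min at room temperature. Phosphorylation was detected by IMAP fluorescence polarization (ex 485/em 535 nm) after 30 min binding in the dark. IC50 was fitted from percent inhibition against DMSO controls with and without enzyme.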

The target of the next assay is T2, CDK2/cyclin A2 (Homo sapiens, UniProt P24941).
T2 construct: purchased Carna Biosciences, Inc. QS S Assist CDK2/Cyclin A2_FP Kit
The experiment in a line: Human CDK2/cyclin A2 inhibitory activity (QS S Assist CDK2/Cyclin A2_FP Kit, IMAP fluorescent polarization). The class given is biochemical. The following applies: read-out: CDK2 Activity symbol. An outline of the steps: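 Kit CDK2/cyclin A2 (2.5 ng/well) was reacted with kit ATP/substrate/metal in 20 mM HEPES pH 7.4, 0.01% Tween 20 and 2 mM DTT for 60 min at room temperature. IMAP binding reagent was added for 30 min, then fluorescence polarization was read at 485/535 nm. IC50 came from dose-response fitting of percent inhibition.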

T1 sequence (P11802 whole entry): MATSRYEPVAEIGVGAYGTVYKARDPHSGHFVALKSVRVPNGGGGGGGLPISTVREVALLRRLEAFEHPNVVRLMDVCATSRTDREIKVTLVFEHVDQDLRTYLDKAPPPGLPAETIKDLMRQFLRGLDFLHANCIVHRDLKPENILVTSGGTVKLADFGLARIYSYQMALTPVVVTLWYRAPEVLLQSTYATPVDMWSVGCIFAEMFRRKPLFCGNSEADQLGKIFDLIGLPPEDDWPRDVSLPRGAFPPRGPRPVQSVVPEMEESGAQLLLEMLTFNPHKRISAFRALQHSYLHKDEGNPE
T1 sequence (P30281 whole entry partner): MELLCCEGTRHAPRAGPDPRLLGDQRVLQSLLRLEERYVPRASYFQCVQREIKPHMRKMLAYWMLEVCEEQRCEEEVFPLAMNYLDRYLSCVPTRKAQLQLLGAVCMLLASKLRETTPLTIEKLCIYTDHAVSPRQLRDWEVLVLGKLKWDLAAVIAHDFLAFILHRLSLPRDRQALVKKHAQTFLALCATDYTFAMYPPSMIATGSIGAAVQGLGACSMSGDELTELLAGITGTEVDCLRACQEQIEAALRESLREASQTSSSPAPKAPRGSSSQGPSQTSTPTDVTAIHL

Take `O=C1CNCCN1c1ccc(Nc2ncc3cc(CO)nc(N4CCCCC4)c3n2)nc1` [Compound 97]: the IC50 is < 10 nM on CDK4/cyclin D3 and ≥ 100 nM at CDK2/cyclin A2.
For `C[C@@H](O)c1cc2cnc(Nc3ccc(CN4CCN(CCO)CC4)cn3)nc2c(N2CCC2)n1` [Compound 47], the IC50 at CDK4/cyclin D3 was 10 to 100 nM; on CDK2/cyclin A2, ≥ 100 nM.
As for `OCCc1cc2cnc(Nc3ccc4c(n3)CCN(CCO)C4)nc2c(N2CCCCC2)n1` [Compound 109], the IC50 at CDK4/cyclin D3 was < 10 nM; on CDK2/cyclin A2, ≥ 100 nM.
The like results for `CC(=O)c1cc2cnc(Nc3ccc(N4CCNCC4)cn3)nc2c(N2CCCCC2)n1` [Compound 26] were, in that order, 10 to 100 nM and ≥ 100 nM.
On to `OCCc1cc2cnc(Nc3ccc(CN4CCNCC4)cn3)nc2c(N2CCCCC2)n1` [Compound 92], for which the values for the IC50 at CDK4/cyclin D3 and on CDK2/cyclin A2 were < 10 nM and ≥ 100 nM, respectively.
The like results for `C[C@@H](O)c1cc2cnc(Nc3ccc(N4CCN(CCS(C)(=O)=O)CCC4=O)cn3)nc2c(N2CCCCC2)n1` [Compound 259] were, in that order, < 10 nM and ≥ 100 nM.
The like results for `C[C@@H](O)c1cc2cnc(Nc3ccc4c(n3)CCN(C(=O)CN3CC[C@@H](F)C3)C4)nc2c(N2C3CCC2CC3)n1` [Compound 231] were, in that order, < 10 nM and ≥ 100 nM.
`C[C@@H](O)c1cc2cnc(Nc3ccc(N4CCN(C)CC4=O)cn3)nc2c(N2CCCCC2)n1` [Compound 72]: the IC50 is < 10 nM on CDK4/cyclin D3 and ≥ 100 nM at CDK2/cyclin A2.
With `C[C@@H](O)c1cc2cnc(Nc3ccc(C(=O)N4CCN(C)CC4)cn3)nc2c(N2CCCCC2)n1` [Compound 309], the IC50 on CDK4/cyclin D3 is < 10 nM; at CDK2/cyclin A2 it was ≥ 100 nM.
Turning to `C[C@@H](O)c1cc2cnc(Nc3ccc(CN4CCN(CCO)CC4)cn3)nc2c(N2CCCOCC2)n1` [Compound 178], the figures for the IC50 on CDK4/cyclin D3 and at CDK2/cyclin A2 were < 10 nM and ≥ 100 nM, respectively.
For `C[C@@H](O)c1cc2cnc(Nc3ccc(CN4CCN(C)[C@@H](C)C4)cn3)nc2c(N2CCCCC2)n1` [Compound 188], the IC50 is < 10 nM on CDK4/cyclin D3 and ≥ 100 nM on CDK2/cyclin A2.
The like results for `C[C@@H](O)c1cc2cnc(Nc3ccc4c(n3)CCN(C(=O)CN3CC(F)C3)C4)nc2c(N2CCCCC2)n1` [Compound 269] were, in that order, < 10 nM and ≥ 100 nM.
For `CC[C@H](O)c1cc2cnc(Nc3ccc(CN4CCN(CCO)CC4)cn3)nc2c(N2CCC[C@H]2C)n1` [Compound 248], the IC50 on CDK4/cyclin D3 is < 10 nM; on CDK2/cyclin A2, ≥ 100 nM.
The like results for `Cc1nc(Nc2ncc3cc([C@@H](C)O)nc(N4CC[C@H](C)C4)c3n2)ccc1N1CCNCC1=O` [Compound 261] were, in that order, < 10 nM and ≥ 100 nM.
The like results for `C[C@@H](O)c1cc2cnc(Nc3ccc4c(n3)CCN(C(=O)[C@H]3C[C@H](O)CN3)C4)nc2c(N2CCCCC2)n1` [Compound 212] were, in that order, < 10 nM and ≥ 100 nM.
The like results for `CC(O)c1cc2cnc(Nc3ccc(OC4CCN(CCO)CC4)cn3)nc2c(N2C3CCC2CC3)n1` (stereo not drawn) [Compound 218] were, in that order, < 10 nM and ≥ 100 nM.
As to `Cc1nc(Nc2ncc3cc([C@@H](C)O)nc(N4CCCCC4)c3n2)ccc1N1CCN(C2CN(C)C2)CC1` [Compound 334], the IC50 is < 10 nM at CDK4/cyclin D3 and ≥ 100 nM on CDK2/cyclin A2.
For `C[C@@H](O)c1cc2cnc(Nc3ccc4c(n3)CCN(CCN(C)C)C4)nc2c(N2CCC(F)(F)CC2)n1` [Compound 82], the IC50 on CDK4/cyclin D3 was < 10 nM; on CDK2/cyclin A2 it was ≥ 100 nM.
The like results for `C[C@@H](O)c1cc2cnc(Nc3ccc(N4CCNCC4=O)cn3)nc2c(N2CCC(C#N)CC2)n1` [Compound 272] were, in that order, < 10 nM and ≥ 100 nM.
Turning to `C[C@@H](O)c1cc2cnc(Nc3ccc(CN4CCC(CO)CC4)cn3)nc2c(N2CCCCC2)n1` [Compound 68], the IC50 at CDK4/cyclin D3 is < 10 nM; on CDK2/cyclin A2, ≥ 100 nM.
`C[C@H](O)Cc1cc2cnc(Nc3ccc4c(n3)CCN(CCO)C4)nc2c(N2CCCCC2)n1` [Compound 204]: the results for the IC50 on CDK4/cyclin D3 and on CDK2/cyclin A2 were 10 to 100 nM and ≥ 100 nM, respectively.
